According to patent US11787817B2, “Albofungin and its derivatives specifically recognize HIV-1 LTR-III G-quadruplex” (The Hong Kong University of Science and Technology, priority 2021, dated 2023):
Entries after “also recorded” stand apart in the source; their conditions may differ.

How the values were obtained:
HIV-1 LTR III G4 = assay: 1D 1H-NMR titration of HIV-1 LTR III G4 with compounds; type: binding; conditions: for binding affinity to LTR III G4 compared with albofungin / interaction / binding with LTR III G4: NMR titration; for interaction / binding with LTR III G4: result in words
Experimental: (§1) The single DNA nucleotides were purchased from Integrated DNA Technologies (IDT). The DNA sample at 100 μM (single strands) was then re-annealed by heating to 95° C. for 15 min, followed by slow cooling to room temperature overnight in an annealing buffer of 70 mM KCl and 20 mM potassium phosphate (pH 7.0). The final NMR samples contained 0.1 mM […] in 20 mM potassium phosphate buffer (pH 7.0) and 70 mM KCl.
(§2) To verify whether or not the compounds interact with G4 DNA, we performed NMR titration experiments by running one-dimensional (1D) ^1H NMR spectra at 25° C. All compounds were dissolved in isotope-labeled d6-DMSO (from Sigma-Aldrich) at about 50 mM concentration, working as stock solutions. To avoid chemical shift changes of G4 DNA resulted from d6-DMSO addition, 10 μL d6-DMSO was added into 500 μL of 0.1 mM G4 DNA solution in the NMR buffer (20 mM potassium phosphate buffer and 70 mM KCl, pH 7.0, 10% D2O) and then a 1D ^1H-NMR spectrum was recorded as a reference. During NMR titration experiments, each compound was added into G4 DNA solution, the maximal volume of 10 μL of each compound in d6-DMSO solution was thought as a final data point.

HIV-1 U3 RNA G4 = assay: 1D 1H-NMR titration of HIV-1 U3 RNA G4; type: binding; conditions: ratio 1:0.5, 1:1, 1:3 and 1:5
Experimental: as §1
as §2, with “point. […]” for “point.”

[1] = Solubility in the solvent system of the NMR titration; type: physicochemical; conditions: in solution / solvent system at the test concentration
Experimental: as §2

LTR-III G4 = assay: CD spectroscopy of LTR-III G4 with compound; design: species or system HIV-1; conditions: increasing compound concentration ratio, 25° C., 220-320 nm
Experimental: Circular dichroism (CD) spectra were recorded on Chirascan CD spectrometer at 25° C. from 220 nm to 320 nm under liquid mode; a 1 mm path-length quartz cuvette was used in the test.
Except for NMR titration and X-ray diffraction; Circular Dichroic (CD) spectroscopy is another frequently used method for G4 studies because it is very sensitive to observing slight changes in DNA conformation. (28) Due to its sensitivity, easy manipulation of studied samples, and relatively cheap, CD spectroscopy is regarded as a crucial complementary method in G4 studies; meanwhile, LTR-III G4's structure has only been resolved using NMR elucidation in K^+ solution, a typical hybrid conformation; and different G4 conformation has distinct CD spectra. So CD test was conducted to see if 477-albo will change the conformation of LTR-III G4.

Epstein-Barr viruses = conditions: literature (15); cited from earlier work
human telomeric G4s = conditions: literature (32); cited from earlier work
[2] = test system: DNA and RNA G4s of LTR-III; conditions: literature; cited from earlier work
[3] = test system: LTR III G4 / hnRNP A2 interaction; assay: 1D 1H-NMR titration of LTR III G4/albofungin complex with RRM1,2 domain of hnRNP A2; type: binding; conditions: G4:albofungin 1:3; G4:albofungin:hnRNP A2 1:3:2
Chain of RRM1,2 domain of hnRNP A2 (P22626 21-191): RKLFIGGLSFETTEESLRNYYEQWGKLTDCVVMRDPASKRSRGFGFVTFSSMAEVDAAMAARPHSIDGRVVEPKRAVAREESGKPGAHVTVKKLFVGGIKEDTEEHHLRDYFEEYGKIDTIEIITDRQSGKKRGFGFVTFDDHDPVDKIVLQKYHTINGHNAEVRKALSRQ
Experimental: as §2
LTR G4 region is under control of two nuclear proteins: nucleolin, which upon binding increases LTR G4 stability and thus silences transcription (26); the human ribonucleoprotein (hnRNP) A2/B1, which can unfold the LTR G4 efficiently and thus enhances HIV-1 transcription (27). To sum up, G4 binding proteins perform like a switch in the determination of G4's conformation to control viral transcription modulation. Therefore, the RRM domain of human ribonucleoprotein (hnRNP A2) was expressed and purified, and the NMR titration of LTR III G4 with the RRM domain of hnRNP A2 was performed. […]

HIV-1 LTR IV G4 = assay: 1D 1H-NMR titration of HIV-1 LTR IV G4; type: binding; conditions: ratio 1:0, 1:3 and 1:6; even at 1:6
Experimental: as §1, §2
(§3) Since not only LTR III can form noncanonical G4, LTR II and LTR IV can also form mutually exclusive G4 structures (24). […]

[4] = test system: human telomeric variant htel21_T18 G4; assay: 1D 1H-NMR titration of human telomeric htel21_T18 G-quadruplex; type: binding; conditions: concentration ratio 1:5
Experimental: as §1, §2
The LTR sequence and other G-rich DNA or RNA strands can form polymorphic G4s. For example, a chair-type conformation is adopted by a human telomeric variant, htel21_T18 (d[(GGGTTA)2GGGTTTGGG]) (SEQ ID NO: 1) (25). […]

HIV-1 LTR II G4 = assay: 1D 1H-NMR titration of HIV-1 LTR II G4; type: binding; conditions: ratio 1:0, 1:3 and 1:6; even at 1:6
Experimental: as §1, §2, §3

[5] = test system: RRM1,2 domain of hnRNP A2; assay: 1H-15N HSQC titration of RRM1,2 domain of hnRNP A2 with compound; type: binding, human; conditions: titrated at 1:10
Experimental: The coding sequence of the RRM domain of hnRNP A2 was inserted into the expression vector pET-28a(+) (Novagen). The protein was expressed in Escherichia coli BL21(DE3) at 37° C. for 5 h. Cell lysates were subject to affinity purification with the nickel-nitrilotriacetic acid resin (Qiagen) followed by the cleavage of the hexahistidine tag with the P3C enzyme. The resulting protein was further purified on a Superdex 75 column (GE Healthcare). For the NMR studies, the samples uniformly labeled with ^15N isotopes were expressed and purified as described above, except that the cells were grown in an M9 medium containing [^15N] ammonium chloride (Cambridge Isotopes) and D-glucose.
The titration experiments were performed by recording a series of 2D ^15N-HSQC spectra on uniformly ^15N-labeled RRM domain (˜0.1 mM) in the presence of different amounts of DNA ranging from 0 to 0.5 mM at 25° C. The protein sample and the stock solutions of DNA were all prepared in 20 mM potassium phosphate buffer and 70 mM KCl, pH 7.0, 10% D2O.
All compounds were dissolved in isotope-labeled d6-DMSO (from Sigma-Aldrich) at about 50 mM concentration, working as stock solutions. […]

Compound	binding affinity to LTR III G4 compared with albofungin (HIV-1 LTR III G4)	interaction / binding with LTR III G4 (HIV-1 LTR III G4)	also measured
COc1c2c(c(O)c3c(=O)c4c(oc13)[C@H](O)CC[C@@H]4O)-c1c(cc3cc(C)[nH]c(=O)c3c1O)CC2 [477-albo]	much weaker than albofungin	specific bind with LTR-III DNA G4; also recorded: bind to LTR III G4	new imino shifts indicating conformation change of LTR III G4 (HIV-1 LTR III G4; concentration ratio increased to 1:3, between 13 to 14 ppm and 9.5 to 10.5 ppm): several strange shifts; trend of chemical shift changes of LTR III G4 imino region on titration (HIV-1 LTR III G4; ratio 1:0 to 1:8): clear trend of chemical shifts changes; binding to U3 RNA G4 (imino region of 1D 1H-NMR spectra) (HIV-1 U3 RNA G4): not U3 RNA G4; also recorded: did not change; solubility [1]: better solubility; conformation change of LTR-III G4 in CD spectra (LTR-III G4): noticeable conformation changes from a typical hybrid form into parallel form
COc1c2c(c(O)c3c(=O)c4c(oc13)[C@H](O)CC[C@@H]4O)-c1c(cc3cc(C)n(N)c(=O)c3c1O)CC2 [492-albo]	much weaker than albofungin	bind to LTR III G4	
CO[C@@H]1CC[C@H](O)c2c1oc1c3c4c(c(O)c1c2=O)-c1c(cc2cc(C)[nH]c(=O)c2c1O)C[C@H]4OCO3 [505-albo]	much weaker than albofungin	bind to LTR III G4	
Cc1cc2cc3c(c(O)c2c(=O)n1N)-c1c2c(c4oc5c(c(=O)c4c1O)[C@@H](O)[C@@H](O)CC5)OCO[C@@H]2C3 [506-1-albo]	much weaker than albofungin	bind to LTR III G4	
Cc1cc2cc3c(c(O)c2c(=O)n1N)-c1c2c(c4oc5c(c(=O)c4c1O)[C@@H](O)CC[C@H]5O)OCO[C@@H]2C3 [506-2-albo]	much weaker than albofungin	bind to LTR III G4	
CO[C@@H]1CC[C@H](O)c2c1oc1c3c4c(c(O)c1c2=O)-c1c(cc2cc(C)n(C)c(=O)c2c1O)C[C@H]4OCO3 [519-albo]	much weaker than albofungin	bind to LTR III G4	
CO[C@@H]1CC[C@H](O)c2c1oc1c3c4c(c(O)c1c2=O)-c1c(cc2cc(C)n(NC(C)=O)c(=O)c2c1O)C[C@H]4OCO3 [562-albo]	much weaker than albofungin	bind to LTR III G4	
CN(C)c1ccc(Nc2c3ccc(NC(=O)CCN4CCCC4)cc3nc3cc(NC(=O)CCN4CCCC4)ccc23)cc1 [BRACO-19]			activity against Epstein-Barr viruses (Epstein-Barr viruses): active against; activity against human telomeric G4s (human telomeric G4s): active against; binding to DNA and RNA G4s of LTR-III [2]: binds both DNA and RNA G4s of LTR-III
CO[C@@H]1CC[C@H](O)c2c1oc1c3c4c(c(O)c1c2=O)-c1c(cc2c(Cl)c(C)n(N)c(=O)c2c1O)C[C@H]4OCO3 [chloroalbofungin]		poor binding affinity	
albofungin		potent interaction	chemical shift changes in the imino region of the 1D 1H-NMR spectrum of LTR III G4 (HIV-1 LTR III G4; G4:compound concentration ratio 1:0.5, 25° C.): significant chemical shift changes; changes in imino region of LTR III G4/albofungin complex on adding RRM1,2 domain of hnRNP A2 [3]: no changes in the profile of the imino region; chemical shift changes of LTR IV G4 1D 1H NMR spectra (HIV-1 LTR IV G4): no significant chemical shift changes; chemical shift changes of htel21_T18 1D 1H NMR spectra [4]: no chemical shift changes; chemical shift changes of LTR II G4 1D 1H NMR spectra (HIV-1 LTR II G4): no significant chemical shift changes; solubility [1]: poor solubility; binding to the RRM domain of hnRNP A2 [5]: did not bind
